Consider 7 compounds from patent publication US20030087887A1, “Novel fusidic acid derivatives” (priority 2001, published 2003).

In brackets after ≈: the same amount, converted by molar mass. Where two headings read alike, the source gives them in different places.

Common to all, as to type: cell-based
Assay [1] relates to Propionibacterium acnes FN33. As to the kind of experiment: MIC, agar diffusion, Propionibacterium acnes FN33. The note with it: Cutibacterium acnes, read-out: in vitro activities MIC. From the text:
(§1) In vitro investigations have shown a relatively high potency of compounds of the invention against all bacteria including gram-positive and gram-negative strains (Staphylococci, Streptococci, Corynebacteriae, Mycobacteriae, Proteus, Propionibacterium, Pseudomonas, Neisseriae, E. coli) and fungal strains (Candida and Aspergillus). […] In addition, the studies of post-antibiotic effects point towards a strong bactericidal effect of the compounds of the invention. […] The potency of new polyaminated fusidic acid analogues is estimated by comparing the inhibition of growth of different microorganisms produced by known concentrations of the analogue to be examined and a reference compound such as fusidic acid. The microbiological assay set up is in agreement with the European Pharmacopoeia 3rd edition (1997). It is an agar diffusion method where the same volume of the tested solution is added to cavities in agar. The inhibition zones are function of the concentration of the fusidic acid analogue used. All assays are run with fusidic acid as reference substance.

In assay [2] the test system is Saccaromyces cervisiae ZZ7. As to the kind of experiment: MIC, agar diffusion, Saccaromyces cervisiae ZZ7. The note with it: Saccharomyces cerevisiae, read-out: in vitro activities MIC.
From the text: as §1

Another assay concerns S. aureus N6. As to the kind of experiment: MIC, agar diffusion, S. aureus N6. The note with it: Staphylococcus aureus; S. aureus N6 (Fus. resistant); read-out: in vitro activities MIC.
From the text: as §1
A general note: In agar diffusion tests the substance spreads into inoculated agar from a disc or well.

In the next assay the test system is Candida albicans ZA. Kind of assay: MIC, agar diffusion, Candida albicans ZA. The note with it: read-out: in vitro activities MIC.
From the text: as §1

In assay [3] the test system is Corynebacterium xerosis FF. As to the kind of experiment: MIC, agar diffusion, Corynebacterium xerosis FF. The note with it: read-out: in vitro activities MIC.
From the text: as §1

In assay [4] the test system is Streptococcus faecium EI19. As to the kind of experiment: MIC, agar diffusion, Streptococcus faecium EI19. The note with it: Enterococcus faecium; Streptococcus faecium EI19 (Penicillin resistant); read-out: in vitro activities MIC.
From the text: as §1

The test system of a further assay is Asbergillus niger ZM35. As to the kind of experiment: MIC, agar diffusion, Asbergillus niger ZM35. The note with it: Aspergillus niger, read-out: in vitro activities MIC.
From the text: as §1

In a further assay the test system is E. coli HA165. Kind of assay: MIC, agar diffusion, E. coli HA165. The note with it: Escherichia coli, read-out: in vitro activities MIC.
From the text: as §1

For assay [5], the system named is Streptococcus pyogenes EC88. As to the kind of experiment: MIC, agar diffusion, Streptococcus pyogenes EC88. The note with it: read-out: in vitro activities MIC.
From the text: as §1

Another assay relates to S. aureus CJ234F. As to the kind of experiment: MIC, agar diffusion, S. aureus CJ234F. The note with it: Staphylococcus aureus; S. aureus CJ234F (MRSA, Fus. resistant); read-out: in vitro activities MIC.
From the text: as §1

The subject of a further assay is S. epidermis CK5. Kind of assay: MIC, agar diffusion, S. epidermis CK5. The note with it: Staphylococcus epidermidis, read-out: in vitro activities MIC.
From the text: as §1

The subject of a further assay is S. aureus CJ247. Kind of assay: MIC, agar diffusion, S. aureus CJ247. The note with it: Staphylococcus aureus, read-out: in vitro activities MIC.
From the text: as §1

For another assay, the system named is S. aureus CJ200. As to the kind of experiment: MIC, agar diffusion, S. aureus CJ200. The note with it: Staphylococcus aureus, read-out: in vitro activities MIC.
From the text: as §1

For assay [6], the system named is Pseudomonas aeruginosa BA17. As to the kind of experiment: MIC, agar diffusion, Pseudomonas aeruginosa BA17. The note with it: read-out: in vitro activities MIC.
From the text: as §1

Another assay concerns S. aureus CJ234R. As to the kind of experiment: MIC, agar diffusion, S. aureus CJ234R. The note with it: Staphylococcus aureus, read-out: in vitro activities MIC.
From the text: as §1

Where [7] appears, read: S. aureus CJ234R (MRSA, Rifampicin resistant).

Regarding `CC(C)CCCC(C(=O)NCCCNCCCNCCCN)[C@@H]1CC[C@@]2(C)C1C[C@@H](O)C1[C@@]3(C)CC[C@@H](O)[C@@H](C)C3CC[C@@]12C` (stereo partly drawn) [Compound 145, 21-N-{[3′-({3′-[(3′-aminopropyl)amino]propyl}amino)propyl]}-16-desacetoxy-17R,20S,24,25-tetrahydrofusid-21-amide], the MIC (as a rule, the smallest concentration in the dilution series that meets the test's criterion for growth inhibition) in [1] was 1 µg/mL (≈ 1.58 µM); in assay [2], 4 µg/mL (≈ 6.32 µM); with S. aureus N6, 1 µg/mL (≈ 1.58 µM); with Candida albicans ZA it was more than 125 µg/mL; in assay [3] it was 1 µg/mL (≈ 1.58 µM); in [4] it was 4 µg/mL (≈ 6.32 µM). The minimal inhibitory concentration (MIC) in the assay with Asbergillus niger ZM35 was more than 125 µg/mL; with E. coli HA165, 4 µg/mL (≈ 6.32 µM); in assay [5], 4 µg/mL (≈ 6.32 µM); in the assay on S. aureus CJ234F, 1 µg/mL (≈ 1.58 µM); in the assay with S. epidermis CK5, 1 µg/mL (≈ 1.58 µM); in the assay on S. aureus CJ247, 1 µg/mL (≈ 1.58 µM). Besides, the MIC in the assay on S. aureus CJ200 came to 1 µg/mL (≈ 1.58 µM); in assay [6], 4 µg/mL (≈ 6.32 µM); with S. aureus CJ234R (MRSA), 4 µg/mL (≈ 6.32 µM).
In the case of `CC(C)CCCC(C(=O)NCCCNCCCCNCCCN)[C@@H]1CC[C@@]2(C)C1C[C@@H](O)C1[C@@]3(C)CC[C@@H](O)[C@@H](C)C3CC[C@@]12C` (stereo partly drawn) [Compound 146, 21-N-{[3′-({4′-[(3′-aminopropyl)amino]butyl}amino)propyl]}-16-desacetoxy-17R,20S,24,25-tetrahydrofusid-21-amide], the MIC was 1 µg/mL (≈ 1.55 µM) in assay [1]; 4 µg/mL (≈ 6.18 µM) in assay [2]; 1 µg/mL (≈ 1.55 µM) with S. aureus N6; more than 125 µg/mL in the assay on Candida albicans ZA; 1 µg/mL (≈ 1.55 µM) in assay [3]; 1 µg/mL (≈ 1.55 µM) in [4]. Further, the MIC was more than 125 µg/mL in the assay on Asbergillus niger ZM35; 4 µg/mL (≈ 6.18 µM) with E. coli HA165; 1 µg/mL (≈ 1.55 µM) in [5]; 1 µg/mL (≈ 1.55 µM) in the assay with S. aureus CJ234F; 1 µg/mL (≈ 1.55 µM) in the assay on S. epidermis CK5; 1 µg/mL (≈ 1.55 µM) in the assay with S. aureus CJ247. Also, the MIC in the assay with S. aureus CJ200 worked out at 1 µg/mL (≈ 1.55 µM); in [6], 16 µg/mL (≈ 24.7 µM).
Regarding `CC(=O)O[C@H]1C[C@@]2(C)C(C[C@@H](O)C3[C@@]4(C)CC[C@@H](OC(C)=O)[C@@H](C)C4CC[C@@]32C)[C@@H]1[C@H](CCCC(C)C)C(=O)NCCCNCCCNCCCN` (stereo partly drawn) [Compound 172, 21-N-[3′-({3′-[(3′-aminopropyl)amino]propyl}amino)propyl]-3-OAc-17R,20S,24,25-tetrahydrofusid-21-amide], the minimum inhibitory concentration (MIC) in assay [1] turned out to be 1 µg/mL (≈ 1.36 µM); in assay [2], 64 µg/mL (≈ 87.3 µM); in the assay on S. aureus N6, 4 µg/mL (≈ 5.46 µM); in the assay with Candida albicans ZA, 64 µg/mL (≈ 87.3 µM); in [3], 4 µg/mL (≈ 5.46 µM); with Asbergillus niger ZM35 it was 64 µg/mL (≈ 87.3 µM). Besides, the MIC (in the assay with E. coli HA165; in assay [5]; in the assay with S. aureus CJ234F; with S. epidermis CK5; with S. aureus CJ247; in the assay on S. aureus CJ200) was 4 µg/mL (≈ 5.46 µM) throughout. Besides, the MIC in [6] was found to be 4 µg/mL (≈ 5.46 µM); with S. aureus CJ234R (MRSA) it was 1 µg/mL (≈ 1.36 µM).
For `CC(=O)O[C@H]1C[C@@]2(C)C(C[C@@H](O)C3[C@@]4(C)CC[C@@H](OC(C)=O)[C@@H](C)C4CC[C@@]32C)[C@@H]1[C@H](CCCC(C)C)C(=O)NCCCNCCCCNCCCN` (stereo partly drawn) [Compound 173, 21-N-[3′-({4′-[(3′-aminopropyl)amino]butyl}amino)propyl]-3-OAc-17R,20S,24,25-tetrahydrofusid-21-amide], the minimal inhibitory concentration (MIC) is 4 µg/mL (≈ 5.35 µM) in assay [1]; 4 µg/mL (≈ 5.35 µM) in [2]; 4 µg/mL (≈ 5.35 µM) in the assay on S. aureus N6; 125 µg/mL (≈ 167 µM) in the assay on Candida albicans ZA; 4 µg/mL (≈ 5.35 µM) in assay [3]; 125 µg/mL (≈ 167 µM) in the assay on Asbergillus niger ZM35. The minimal inhibitory concentration (MIC) was 4 µg/mL (≈ 5.35 µM) in the assay with E. coli HA165; 4 µg/mL (≈ 5.35 µM) in [5]; 4 µg/mL (≈ 5.35 µM) in the assay with S. aureus CJ234F; 1 µg/mL (≈ 1.34 µM) with S. epidermis CK5; 4 µg/mL (≈ 5.35 µM) in the assay on S. aureus CJ247; 4 µg/mL (≈ 5.35 µM) in the assay on S. aureus CJ200. Further, the minimal inhibitory concentration (MIC) in assay [6] was determined as 4 µg/mL (≈ 5.35 µM); in the assay with S. aureus CJ234R (MRSA), 1 µg/mL (≈ 1.34 µM).
Regarding `CC(=O)O[C@H]1C[C@@]2(C)[C@@H](C[C@@H](O)[C@H]3[C@@]4(C)CC[C@@H](O)[C@@H](C)[C@@H]4CC[C@@]32C)/C1=C(\CCC=C(C)C)C(=O)O` [FA, fusidic acid], the MIC in assay [1] was 0.2 µg/mL (≈ 0.387 µM); in assay [2], more than 64 µg/mL; with S. aureus N6 it was 16 µg/mL (≈ 31 µM); in the assay on Candida albicans ZA, more than 64 µg/mL; in assay [3], 0.1 µg/mL (≈ 0.194 µM); with Asbergillus niger ZM35 it was more than 64 µg/mL. Further, the minimal inhibitory concentration (MIC) was more than 64 µg/mL with E. coli HA165; 16 µg/mL (≈ 31 µM) in assay [5]; 16 µg/mL (≈ 31 µM) in the assay with S. aureus CJ234F; 0.02 µg/mL (≈ 0.0387 µM) in the assay with S. epidermis CK5; 0.02 µg/mL (≈ 0.0387 µM) with S. aureus CJ247; 0.02 µg/mL (≈ 0.0387 µM) with S. aureus CJ200. In addition, the figures for the MIC (in [6]; in the assay on S. aureus CJ234R (setting [7])) were more than 64 µg/mL and 0.02 µg/mL (≈ 0.0387 µM), respectively.
Regarding `CC(=O)NC[C@H]1CN(c2ccc(N3CCOCC3)c(F)c2)C(=O)O1` [Linezolid, reference compound], the MIC in assay [1] is 1 µg/mL (≈ 2.96 µM); in assay [5], 4 µg/mL (≈ 11.9 µM); in the assay on S. aureus CJ234F, 1 µg/mL (≈ 2.96 µM); in the assay on S. epidermis CK5, 0.25 µg/mL (≈ 0.741 µM); in the assay with S. aureus CJ247, 1 µg/mL (≈ 2.96 µM); with S. aureus CJ200 it was 4 µg/mL (≈ 11.9 µM). Besides, in the assay with S. aureus CJ234R (setting [7]), the MIC worked out at 16 µg/mL (≈ 47.4 µM).
Regarding `C/C(=C\C(=O)OCCCCCCCCC(=O)O)C[C@@H]1OC[C@H](C[C@@H]2O[C@H]2[C@@H](C)[C@H](C)O)[C@@H](O)[C@H]1O` [Mupirocin, reference compound], the MIC in assay [5] was 1 µg/mL (≈ 2 µM); in the assay with S. aureus CJ234F it was 0.5 µg/mL (≈ 0.999 µM); in the assay with S. epidermis CK5, 0.04 µg/mL (≈ 0.0799 µM); in the assay with S. aureus CJ247, 0.5 µg/mL (≈ 0.999 µM); in the assay on S. aureus CJ200, 1 µg/mL (≈ 2 µM); with S. aureus CJ234R (setting [7]), 1 µg/mL (≈ 2 µM).
